According to ChEMBL document CHEMBL3988442, “University of Dundee, Small-Polar-MMV Screening Library” (2021):

Columns and labels:
[1] = microbe, parasite or virus in culture; details: Mycobacterium tuberculosis, 96 h, read-out: pIC50 (converted)
[2] = microbe, parasite or virus in culture; details: Mycobacterium tuberculosis, 72 h, read-out: pIC50 (converted)

Row | SMILES | IC50 [1] | IC50 [2]
1 | CC(C)C[C@H](N)C(=O)N(C)c1ccccc1 | 225 µM | 242 µM
2 | COc1ccc(CCN)c(Cl)c1OC | > 501 µM | 265 µM
3 | COc1cc(C(=O)Nc2nc(C)no2)ccc1C | > 50.1 µM | > 50.1 µM
4 | CNS(=O)(=O)CC1CCCN1c1ncc(Br)cn1 (stereo not drawn) | > 501 µM | 289 µM
5 | CC(CNC(=O)Cn1cccn1)Sc1ccccc1 (stereo not drawn) | 121 µM | 135 µM
6 | COC(=O)c1ccc(NCC(=O)NC(N)=O)cc1 | 58.3 µM | 85.4 µM
7 | NC1CCN(Cc2ccccc2F)CC1 | > 501 µM | > 501 µM
8 | CC[C@H](N)C(=O)N(C)Cc1cccc(OC(F)(F)F)c1 | > 501 µM | 199 µM
9 | NCC(NS(=O)(=O)CCc1cccs1)C1CC1 (stereo not drawn) | 47.8 µM | 167 µM
10 | NS(=O)(=O)c1cccc(S(=O)(=O)c2ccc(Cl)cc2)c1 | 283 µM | 71.4 µM
11 | CC(C(=O)Nc1ccc(Br)cc1)n1cnnn1 (stereo not drawn) | 199 µM | 393 µM
12 | CN(C)C(=O)c1csc(N2CCCCC2)n1 | 58.7 µM | 46.6 µM
13 | CNC(=O)C(C)Sc1nnnn1-c1ccccc1C (stereo not drawn) | 213 µM | 210 µM
14 | CN(CCCN)c1ccccc1F | 129 µM | 86.1 µM
15 | Cc1n[nH]cc1CNCC(c1ccsc1)N(C)C (stereo not drawn) | > 50.1 µM | > 50.1 µM
16 | C=C(C)CSc1nnnn1Cc1ccco1 | 55.3 µM | 51.6 µM
17 | CCCc1nnc(NCc2ccc(C)cn2)o1 | 212 µM | 138 µM
18 | O=C(NCCn1cccc1)c1ccc(Cl)cn1 | 52.9 µM | 57.9 µM
19 | CC(=O)NCC1CNCCO1 (stereo not drawn) | > 501 µM | > 501 µM
20 | CN1CCCN(C(=O)COc2cccc(Cl)c2)CC1 | > 501 µM | 283 µM
21 | NC(=O)COc1cccc(CN2CCC(F)CC2)c1 | > 501 µM | > 501 µM
22 | Cc1ccc(-c2noc([C@@H]3Cc4nc[nH]c4CN3)n2)cc1 | 2.31 µM | 1.94 µM
23 | OCc1cnc2c(F)cccc2c1 | > 501 µM | > 501 µM
24 | COC1CCN(C(=O)CCc2ccc(F)cc2F)C1 (stereo not drawn) | 21.4 µM | 206 µM
25 | COc1cccc(-c2cnn(CCC(N)=O)c2)c1F | > 501 µM | 355 µM
26 | COC(=O)CSCc1nc(-c2ccc(Cl)cc2)no1 | > 50.1 µM | > 50.1 µM
27 | CC(Nc1ccc(F)cc1)C(=O)N1CCCC1 (stereo not drawn) | 68.6 µM | 106 µM

Row | SMILES | IC50 [1] | IC50 [2]
28 | CCN(CC)c1ccc(C(=O)Nc2cc[nH]n2)cn1 | > 501 µM | 251 µM
29 | CN(C)S(=O)(=O)NC1CCCOc2c(Cl)cccc21 (stereo not drawn) | > 501 µM | > 501 µM
30 | Cc1cccc(N2CCN(CCCN)CC2)c1 | > 501 µM | > 501 µM
31 | NCCCOc1ncc(C(F)(F)F)cc1Cl | 238 µM | 101 µM
32 | CCCc1cncnc1N1CCC(NCc2cc3ccccc3[nH]2)CC1 | 18.3 µM | 18.3 µM
33 | COC(=O)c1cc(C)nc(N2CCN(Cc3cc(C(C)C)no3)CC2)n1 | > 50.1 µM | > 50.1 µM
34 | CC[C@@H](CO)NC(=O)NCC(C)c1ccsc1 (stereo partly drawn) | 495 µM | 483 µM
35 | O=C(CN1CCNCC1)c1ccco1 | 186 µM | 239 µM
36 | COc1cc(Br)ccc1CCCNC(=O)c1c[nH]nn1 | 335 µM | 143 µM
37 | NCc1cc(N[C@H](CO)CC2CCCCC2)ncn1 | > 501 µM | 296 µM
38 | CCCc1cc(C(=O)NCCCC(=O)N2Cc3ccccc3C2)[nH]n1 | > 50.1 µM | > 50.1 µM
39 | NC1(c2nc(-c3ccccc3)c[nH]2)CCCC1 | 258 µM | 176 µM
40 | Cc1cccnc1NCCNC1CSCCSC1 | > 501 µM | 248 µM
41 | COc1cc(N2CCNCC2)ccc1F | > 501 µM | 281 µM
42 | CN1CCCN(C(=O)c2cc3c(s2)CCCC3)CC1 | > 501 µM | 211 µM
43 | CC(=O)c1cc(C(=O)NCCSC(F)(F)F)[nH]n1 | 79.5 µM | 274 µM
44 | CCC1(NC(=O)c2coc(S(=O)(=O)N(C)C)c2)CCC1 | > 501 µM | > 501 µM
45 | CN1Cc2cc(-c3csc(N)n3)ccc2NC1=O | > 501 µM | > 501 µM
46 | OC1(CNCCN2CCc3ccccc32)CNCCOC1 (stereo not drawn) | > 50.1 µM | > 50.1 µM
47 | COCC(C)Oc1cc(C)ccc1CN (stereo not drawn) | 228 µM | 149 µM
48 | CNCc1nc(C(F)(F)F)no1 | > 501 µM | > 501 µM
49 | O=C(C1Cc2cc(Cl)ccc2O1)N1CCOCC1 (stereo not drawn) | > 501 µM | > 501 µM
50 | CCc1nc(CNc2ccc(F)cc2I)no1 | 2.44 µM | 3.04 µM
51 | CCC[C@H]1CN(S(=O)(=O)Cc2ccc(F)cc2)C[C@@H]1N | > 501 µM | > 501 µM
52 | COc1ccc(Br)c(CN)c1 | 184 µM | 116 µM
53 | COc1c(CNCCS(C)(=O)=O)c(C(C)C)nn1C | > 501 µM | > 501 µM
54 | CCOc1ccc(CC(=O)N2CCN(CC)CC2)cc1 | > 501 µM | 371 µM

Row | SMILES | IC50 [1] | IC50 [2]
55 | CN(CCS(=O)(=O)c1ccc(Cl)cc1)CC(=O)N(C)C | 105 µM | 63.6 µM
56 | CCOc1ccc(Cn2nc(COC)oc2=O)nc1 | 19.1 µM | 246 µM
57 | Nc1ncccc1C(=O)NCCC1=CCCCC1 | > 501 µM | 230 µM
58 | N[C@H]1CC[C@H](Oc2ncccc2Cl)CC1 | > 501 µM | 125 µM
59 | CC(C)n1cnc(C2CN(C)c3ccc(C(=O)NCC4CC4)cc32)n1 (stereo not drawn) | > 50.1 µM | > 50.1 µM
60 | COc1ccnc(N2CCCN(c3nc(C4CC4)ns3)CC2)n1 | > 50.1 µM | > 50.1 µM
61 | O=C(NCC1(O)COCCN(Cc2cccc(O)c2)C1)c1cscn1 (stereo not drawn) | > 50.1 µM | > 50.1 µM
62 | O=C(Nc1cc(F)cc(F)c1)c1ccncc1 | > 501 µM | 224 µM
63 | CCOC(=O)Nc1ccc2c(c1)OCCO2 | 325 µM | > 501 µM
64 | O=C1CCC(Nc2nc(-c3ccccc3)ns2)CN1 (stereo not drawn) | 286 µM | > 501 µM
65 | CCOCCC(=O)N1c2ccccc2OCC1C (stereo not drawn) | > 501 µM | 97.6 µM
66 | Cc1ncsc1C(=O)NC(C)C(C)C (stereo not drawn) | > 501 µM | > 501 µM
67 | Cc1ccccc1-c1nnn(CC(O)CC(F)(F)F)n1 (stereo not drawn) | 126 µM | 102 µM
68 | O=C1CNc2ncnc(N3CCN(c4ccccc4F)CC3)c2N1 | > 50.1 µM | > 50.1 µM
69 | CC1CCCN(c2nc(C(=O)N3CCOCC3)cs2)C1 (stereo not drawn) | 146 µM | 133 µM
70 | NC1CCCc2occc21 (stereo not drawn) | 245 µM | 142 µM
71 | NCc1noc(-c2cccc(Br)c2)n1 | > 501 µM | 127 µM
72 | Cn1c(CO)nnc1SCC=Cc1ccccc1 | 289 µM | 240 µM
73 | CCOCC(=O)NC(C)Cc1ccccc1Br (stereo not drawn) | 0.742 µM | 0.928 µM
74 | Cc1nc(CNC(=O)CC2=CCCCC2)no1 | > 501 µM | > 501 µM
75 | OC(CN1CCOC2(CCCC2)C1)c1ccccc1 (stereo not drawn) | 172 µM | 379 µM
76 | CN1CCN(C(=O)c2cnsn2)c2ccccc21 | > 501 µM | > 501 µM
77 | COC(=O)COc1cc(NCc2c(C)noc2C)c(Cl)cc1C | 35 µM | 32.1 µM
78 | CCOCCN1CCN(Cc2nnc(OCC)s2)CC1 | > 501 µM | > 501 µM
79 | Cc1nn(C)c(C)c1CN(CCO)C(=O)C1COc2ccccc2C1 (stereo not drawn) | > 50.1 µM | > 50.1 µM
